# Reference: ChEMBL document CHEMBL5506059, “Cyanomethylquinolones as a New Class of Potential Multitargeting Broad-Spectrum Antibacterial Agents” (J Med Chem, 2024)
# Calls of active or inactive are those of the source. No cut-off for these calls is given here.
# Experiments:
# Cell membrane [1] = experiment: Induction of cell membrane permeability in methicillin-resistant Staphylococcus aureus assessed as increase in fluorescence intensity at 1 to 2 ug/ml incubated for 6 hrs by PI staining based fluorescence analysis; format: cell membranes; conditions: dose 1-2 µg/ml
# Staphylococcus aureus [2] = experiment: Antibacterial activity against Staphylococcus aureus ATCC 6538 assessed as inhibition of bacterial growth incubated for 24 hrs; format: functional
# Staphylococcus aureus [3] = experiment: Antibacterial activity against methicillin resistant Staphylococcus aureus infected in female ICR mouse assessed as log reduction in bacterial load at 10 mg/kg pre-infected with bacteria for 24 hrs followed by compound administration on wound site every 6 hrs for 2 times and measured 36 hrs post infection; format: functional; conditions: time 12 hrs
# Enterococcus faecalis [4] = experiment: Potency index, ratio of norfloxacin MIC to test compound MIC for antibacterial activity against vancomycin-resistant Enterococcus faecalis clinical isolate p1-2007225053 assessed as inhibition of bacterial growth incubated for 24 hrs; format: functional
# Staphylococcus aureus [5] = experiment: Antibacterial activity against methicillin-resistant Staphylococcus aureus ATCC 43300 assessed as inhibition of bacterial growth incubated for 24 hrs; format: functional
# Cell membrane [6] = experiment: Induction of cell membrane damage in methicillin-resistant Staphylococcus aureus assessed as increase in nucleic acid leakage at 0 to 2 ug/ml incubated for 12 hrs by optical density based microplate reader analysis; format: cell membranes; conditions: dose 0-2 µg/ml
# Cell membrane [7] = experiment: Induction of cell membrane depolarization in Pseudomonas aeruginosa assessed as increase in fluorescence intensity at 1 ug/ml measured for 30 mins by DiSC35 dye based fluorescence analysis; format: cell membranes; conditions: dose 1.0 µg/ml
# Staphylococcus aureus [8] = experiment: Induction of morphological changes in methicillin resistant Staphylococcus aureus assessed as appearance of blurred intracellular boundaries with disintegration of bacterial structure at 2 ug/ml incubated for 3 hrs by SEM analysis; format: functional, organism-based; conditions: dose 2.0 µg/ml
# Escherichia coli = experiment: Antibacterial activity against Escherichia coli clinical isolate assessed as inhibition of bacterial growth incubated for 24 hrs; format: functional
# Acinetobacter baumannii = experiment: Antibacterial activity against Acinetobacter baumannii clinical isolate assessed as inhibition of bacterial growth incubated for 24 hrs; format: functional
# Pseudomonas aeruginosa [9] = experiment: Antibiofilm activity in Pseudomonas aeruginosa assessed as biofilm eradication measured after 24 hrs by crystal violet staining based analysis; format: functional, organism-based; conditions: dose 1-2 µg/ml
# Pseudomonas aeruginosa [10] = experiment: Potency index, ratio of clinafloxacin MIC to test compound MIC for antibacterial activity against Pseudomonas aeruginosa clinical isolate assessed as inhibition of bacterial growth incubated for 24 hrs; format: functional
# Staphylococcus aureus [11] = experiment: Antibacterial activity against Staphylococcus aureus CMCC(B)26003 assessed as inhibition of bacterial growth incubated for 24 hrs; format: functional
# Pseudomonas aeruginosa [12] = experiment: Induction of morphological changes in Pseudomonas aeruginosa assessed as appearance of concaved bacterial surface at 2 ug/ml incubated for 3 hrs by SEM analysis; format: functional, organism-based; conditions: dose 2.0 µg/ml
# Staphylococcus aureus [13] = experiment: Antibacterial activity against Staphylococcus aureus CMCC(B)26001 assessed as inhibition of bacterial growth incubated for 24 hrs; format: functional
# Staphylococcus aureus [14] = experiment: Resistance development in methicillin resistant Staphylococcus aureus assessed as increase in MIC measured after 20 days; format: functional, organism-based; conditions: time 20.0 day
# Enterococcus faecalis [15] = experiment: Potency index, ratio of ciprofloxacin MIC to test compound MIC for antibacterial activity against vancomycin-resistant Enterococcus faecalis clinical isolate p1-2007225053 assessed as inhibition of bacterial growth incubated for 24 hrs; format: functional
# Staphylococcus aureus [16] = experiment: Antibacterial activity against Staphylococcus aureus clinical isolate assessed as inhibition of bacterial growth incubated for 24 hrs; format: functional
# Staphylococcus aureus [17] = experiment: Antibacterial activity against ciprofloxacin-treated Staphylococcus aureus ATCC 6538 assessed as inhibition of bacterial growth measured after 24 hrs; format: functional
# Pseudomonas aeruginosa [18] = experiment: Induction of morphological changes in Pseudomonas aeruginosa assessed as appearance of blurred intracellular boundaries with disintegration of bacterial structure at 2 ug/ml incubated for 3 hrs by SEM analysis; format: functional, organism-based; conditions: dose 2.0 µg/ml
compound,measurement,setting,value
N#CCc1cc2c(cc1F)c(=O)c(C(=O)O)cn2C1CC1,Activity,Cell membrane [1],Active
same,MIC,Staphylococcus aureus [2],0.5 µg/mL
same,log(activity),Staphylococcus aureus [3],~2.5
same,Ratio,Enterococcus faecalis [4],8
same,MIC,Staphylococcus aureus [5],0.5 µg/mL
same,Activity,Cell membrane [6],Active
same,Activity,Cell membrane [7],Active
same,Activity,Staphylococcus aureus [8],Active
same,MIC,Escherichia coli,2 µg/mL
same,MIC,Acinetobacter baumannii,0.25 µg/mL
same,Activity,Pseudomonas aeruginosa [9],Dose-Dependent Effect
same,Ratio,Pseudomonas aeruginosa [10],2
same,MIC,Staphylococcus aureus [11],0.125 µg/mL
same,Activity,Pseudomonas aeruginosa [12],Active
same,MIC,Staphylococcus aureus [13],0.125 µg/mL
same,Activity,Staphylococcus aureus [14],inactive
same,Ratio,Enterococcus faecalis [15],2
same,MIC,Staphylococcus aureus [16],0.25 µg/mL
same,MIC,Staphylococcus aureus [17],8 µg/mL
same,Activity,Pseudomonas aeruginosa [18],Active
